The target in assay [1] is Human recombinant PDE4 (Genbank accession no NM—006203) (Homo sapiens, UniProt Q08499). Kind of assay: PDE4 Assay (SPA, cleavage of cAMP). It counts as biochemical. The conditions noted are these: human recombinant PDE4, 1 hour incubation, cAMP 1×10^-5M, test compound up to 10 μM; read-out: IC50 (PDE4). How it is done:
Human recombinant PDE4 (Genbank accession no NM_006203) was incubated for 1 hour, with the test compound at concentrations up to 10 μM, with cAMP (1×10^-5M), and with a low amount (0.021 MBq) of radioactively labelled cAMP. At the end of the incubation, the cleavage of the substrate was evaluated by the binding of the AMP product to SPA beads, which generate […] when bound to the radioactive tracer. The AMP product inhibited the binding of the radioactive tracer to the beads, and the luminescent signal was competed. The results were calculated as the molar concentrations resulting in 50% inhibition of the substrate cleavage compared to controls samples, and are expressed as IC50 (M).

The test system of assay [2] is TNF-α release from human peripheral blood mononuclear cells (PBMC). Kind of assay: TNF-α Release in LPS stimulated PBMC. It counts as cell-based. The conditions noted are these: 30 minutes pre-incubation, stimulated 18 hours with lipopolysaccharide, TNF-α in supernatant by enzyme immunoassay. On the procedure:
Human peripheral blood mononuclear cells (PBMC) were isolated from buffy coats. The blood is mixed with saline at a ratio of 1:1, and the PBMC were isolated using Lymphoprep Tubes™ (Nycomed, Norway). The PBMC were suspended in RPMI1640 with 2% foetal calf serum (FCS), pen/strep and 2 mM L-glutamine at a concentration of […]. The cells were pre-incubated for 30 minutes with the test compounds in 96 well tissue culture plates and stimulated for 18 hours with lipopolysaccharide […] (Sigma). The level of TNF-α was measured in the culture supernatant by enzyme immunoassays using primary and secondary biotinylated antibodies from R&D systems. Results are expressed as IC50 values calculated from inhibition curves using as positive controls the secretion in LPS stimulated wells and as negative controls the secretion in unstimulated cells.

Molecules are shown by their SMILES.

Human recombinant PDE4 (Genbank accession no NM—006203), sequence (Q08499 1-673 isoform Q08499-2): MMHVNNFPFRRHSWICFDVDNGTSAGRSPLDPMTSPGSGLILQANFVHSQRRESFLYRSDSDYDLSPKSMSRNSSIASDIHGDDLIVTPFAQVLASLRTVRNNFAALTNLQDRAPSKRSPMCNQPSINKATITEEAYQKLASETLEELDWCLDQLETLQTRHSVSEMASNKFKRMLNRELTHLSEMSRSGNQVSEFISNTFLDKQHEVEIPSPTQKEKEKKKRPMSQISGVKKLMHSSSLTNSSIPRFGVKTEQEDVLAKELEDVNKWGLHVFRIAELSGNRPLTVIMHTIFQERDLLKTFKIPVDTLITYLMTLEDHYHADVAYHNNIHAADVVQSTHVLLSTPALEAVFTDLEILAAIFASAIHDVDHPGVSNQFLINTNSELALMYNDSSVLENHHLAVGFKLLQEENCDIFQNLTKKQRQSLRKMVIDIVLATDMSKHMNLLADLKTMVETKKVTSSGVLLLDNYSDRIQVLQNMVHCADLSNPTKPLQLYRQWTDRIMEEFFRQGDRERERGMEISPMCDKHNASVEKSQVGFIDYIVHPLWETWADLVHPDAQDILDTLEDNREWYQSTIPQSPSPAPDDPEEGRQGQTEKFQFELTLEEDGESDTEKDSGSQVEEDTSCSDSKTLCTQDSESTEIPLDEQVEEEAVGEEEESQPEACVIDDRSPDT

With `COc1ccc(C(=O)Cc2c(Cl)c[n+]([O-])cc2Cl)c2c1OCC1(CCOCC1)CO2` [Compound 128, 2-(3,5-Dichloro-1-oxido-pyridin-4-yl)-1-{9-methoxy-spiro[2H-1,5-benzodioxepin-3(4H),4′-tetrahydropyran]-6-yl}ethanone], the IC50 in assay [1] was 11 nM; in assay [2], 9 nM.

Consider `COc1ccc(C(=O)Cc2c(Cl)cncc2Cl)c2c1OCC1(COCOC1)CO2` [Compound 130, 2-(3,5-Dichloropyridin-4-yl)-1-{9-methoxy-spiro[2H-1,5-benzodioxepin-3(4H),5′-[1,3]dioxane]-6-yl}ethanone], for which the IC50 in assay [1] is 40 nM; in assay [2], 50 nM.

In the case of `COc1ccc(C(=O)Cc2c(Cl)c[n+]([O-])cc2Cl)c2c1OCC1(COCOC1)CO2` [Compound 131, 2-(3,5-Dichloro-1-oxido-pyridine-4-yl)-1-{9-methoxy-spiro[2H-1,5-benzodioxepin-3(4H),5′-[1,3]dioxane]-6-yl}ethanone], the IC50 in assay [1] came out at 43 nM; in assay [2] it was 16 nM.

On to `COc1ccc(C(=O)Cc2c(Cl)cncc2Cl)c2c1OCC1(CO2)CSCSC1` [Compound 132, 2-(3,5-Dichloropyridin-4-yl)-1-{9-methoxy-spiro[2H-1,5-benzodioxepin-3(4H),5′-[1,3]dithiane]-6-yl}ethanone], for which the IC50 came out at 26 nM in assay [1] and 29 nM in assay [2].

What is called IC50 is the point on the concentration scale where inhibition reaches its midpoint.
